# Data as given in patent US20260256807A1, “SUBSTITUTED PYRAZOLES AND IMIDAZOLES AS OREXIN RECEPTOR ANTAGONISTS COMPOSITION, METHODS FOR TREATING NEUROLOGICAL AND PSYCHOLOGICAL DISORDERS” (HAGER BIOSCIENCES, LLC, priority 2022, published 2026).
# Target: T1, human orexin-1 receptor (Homo sapiens, UniProt O43613)
# T1 construct: expressed in transfected cells; host or cells: CHO cells (G418 selection)
# T1 sequence (O43613 1-425): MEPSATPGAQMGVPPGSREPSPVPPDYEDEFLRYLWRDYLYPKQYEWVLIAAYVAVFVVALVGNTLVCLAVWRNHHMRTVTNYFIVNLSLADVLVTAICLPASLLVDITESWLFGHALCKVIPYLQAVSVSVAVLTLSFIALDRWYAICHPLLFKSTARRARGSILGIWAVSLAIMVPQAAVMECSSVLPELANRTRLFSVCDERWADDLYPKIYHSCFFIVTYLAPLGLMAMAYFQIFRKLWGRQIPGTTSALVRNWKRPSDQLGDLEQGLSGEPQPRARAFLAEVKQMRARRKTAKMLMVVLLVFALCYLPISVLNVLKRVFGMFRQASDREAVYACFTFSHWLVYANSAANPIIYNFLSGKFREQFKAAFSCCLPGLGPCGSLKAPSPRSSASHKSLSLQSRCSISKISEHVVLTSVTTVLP
# Experiment: Intracellular calcium (FLIPR) antagonist assay, CHO cells expressing human orexin-1 receptor, 3 nM orexin-A
# Assay type: cell-based
# Details: 1 uM compound, orexin-A 3 nM
# Method: (§1) Antagonistic activities on both orexin receptors (i.e., to identify Orexin Receptor Antagonists) have been measured for each example compound using the in vitro assays (intracellular calcium measurements) as described herein. Other assays may also be used to identify Orexin Receptor Antagonists as would be understood by those of ordinary skill in the art. Chinese hamster ovary (CHO) cells expressing the human orexin-1 receptor and the human orexin-2 receptor, respectively, are grown in culture medium (Ham F-12 with L-Glutamine) containing 300 μg/mL G418, 100 U/mL penicillin, 100 μg/mL streptomycin and 10% heat inactivated fetal calf serum (FCS). The cells are seeded at 20′000 cells/well into 384-well black clear bottom sterile plates (Greiner). The seeded plates are incubated overnight at 37° C. in 5% CO2. Human orexin-A as an agonist is prepared as 1 mM stock solution in MeOH: water (1:1), diluted in HBSS containing 0.1% bovine serum albumin (BSA), NaHC03: 0.375 g/L and 20 mM HEPES for use in the assay at a final concentration of 3 nM.
# (§2) Antagonists were prepared as 10 mM stock solution in DMSO, then diluted in 384-well plates using DMSO followed by a transfer of the dilutions into in HBSS containing 0.1% bovine serum albumin (BSA), NaHC03: 0.375 g/L and 20 mM HEPES. On the day of the assay, 50 μL of staining buffer (HBSS containing 1% FCS, 20 mM HEPES, NaHC03: 0.375 g/L, 5 mM probenecid (Sigma) and 3 μM of the fluorescent calcium indicator fluro-4 AM (1 mM stock solution in DMSO, containing 10% pluronic) is added to each well. The 384-well cell-plates are incubated for 50 min at 37° C. in 5% C02 followed by equilibration at RT for 30 min before measurement. Within the Fluorescent Imaging Plate Reader (FLIPR Tetra, Molecular Devices), potential Orexin Receptor Antagonists were added to the plate in a volume of 10 μl/well, incubated for 120 min and finally 10 μL/well of agonist is added. Fluorescence was measured for each well at 1 second intervals, and the height of each fluorescence peak compared to the height of the fluorescence peak induced by 3 nM orexin-A with vehicle in place of antagonist. The IC50 value (the concentration of compound needed to inhibit 50% of the agonistic response) was determined and normalized using the obtained IC50 value of an on-plate reference compound. Optimized conditions were achieved by adjustment of pipetting speed and cell splitting regime. The calculated IC50 values fluctuate depending on the daily cellular assay performance, as is known to those skilled in the art. In the case where IC50 values have been determined several times for the same compound, the geometric mean has been given.
row,OXIR % Inh. @ 1 uM [%],SMILES
1,19.54,Cc1cc(C)nc(N2CC3CN(C(=O)c4c(-c5ccccc5F)nc5ccccn45)CC3C2)n1 (centres unmarked) [Example 29]
2,11.58,Cc1cc(C)nc(N2CC3CN(C(=O)c4c(-c5ccc(F)cc5)nn5c4COCC5)CC3C2)n1 (centres unmarked) [Example 40]

# Same assay, conditions: CHO, 1 uM compound, orexin-A 3 nM, read-out: OXIR % Inh. @ 1 uM
row,inhibition at 1 µM [%],SMILES
1,1.61,Cc1cc(C)nc(N2CC3CN(C(=O)c4c(-c5ccccc5)nc5ccc(F)cn45)CC3C2)n1 (centres unmarked) [Example 26]
2,6.42,Cc1cc(C)nc(N2CC3CN(C(=O)c4c(-c5ccc(F)cc5)nc5ccccn45)CC3C2)n1 (centres unmarked) [Example 27]
3,18.3,Cc1cc(C)nc(N2CC3CN(C(=O)c4c(-c5ccccc5F)nc5ccccn45)CC3C2)n1 (centres unmarked) [Example 28]
4,28.3,Cc1cc(C)nc(N2CC3CN(C(=O)c4c(-c5ccc(F)cc5)nn5ccccc45)CC3C2)n1 (centres unmarked) [Example 30]
5,8.04,Cc1cc(C)nc(N2CC3CN(C(=O)c4nc5ccccn5c4-c4ccc(F)cc4)CC3C2)n1 (centres unmarked) [Example 31]
6,4.01,Cc1cc(C)nc(N2CC3CN(C(=O)c4nc5ccccn5c4-c4ccccc4F)CC3C2)n1 (centres unmarked) [Example 32]
7,5,Cc1cc(C)nc(N2CC3CN(C(=O)c4nn5ccccc5c4-c4ccc(F)cc4)CC3C2)n1 (centres unmarked) [Example 33]
8,2.36,Cc1cc(C)nc(N2CC3CN(C(=O)c4nn5ccccc5c4-c4ccccc4F)CC3C2)n1 (centres unmarked) [Example 34]
9,59.1,O=C(c1c(-c2ccccc2)nc2ccc(F)cn12)N1CC2CN(c3ccc(C(F)(F)F)cn3)CC2C1 (centres unmarked) [Example 35]
10,35,O=C(c1c(-c2ccccc2)nc2cc(F)ccn12)N1CC2CN(c3ccc(C(F)(F)F)cn3)CC2C1 (centres unmarked) [Example 36]
11,5.33,Cc1cc(C)nc(N2CC3CN(C(=O)c4c(-c5ccccc5)nc5cc(C(F)(F)F)ccn45)CC3C2)n1 (centres unmarked) [Example 37]
12,6.86,Cc1cc(C)nc(N2CC3CN(C(=O)c4ccccc4-c4cnc5ccccn45)CC3C2)n1 (centres unmarked) [Example 38]
13,14.9,Cc1cc(C)nc(N2CC3CN(C(=O)c4c(-c5ccc(F)cc5)nn5c4COCC5)CC3C2)n1 (centres unmarked) [Example 39]
14,6,Cc1cc(C)nc(N2CC3CN(C(=O)c4c(-c5ccccc5)nn5c4COCC5)CC3C2)n1 (centres unmarked) [Example 41]
15,40.4,Cc1cc(C)nc(N2CC3CN(C(=O)C4C(c5ccccc5)=NN5C=CC=CC45)CC3C2)n1 (centres unmarked) [Example 42]
16,19.6,Cc1cc(C)nc(N2CC3CN(C(=O)c4c(-c5ccccc5)nc5ccccn45)CC3C2)n1 (centres unmarked) [Example 43]
17,19.2,Cc1cc(C)nc(N2CC3CN(C(=O)c4c(-c5ccccc5F)nn5ccccc45)CC3C2)n1 (centres unmarked) [Example 44]

# Target: T2, human orexin-2 receptor (Homo sapiens, UniProt O43614)
# T2 construct: expressed in transfected cells; host or cells: CHO cells (G418 selection)
# T2 sequence (O43614 1-444): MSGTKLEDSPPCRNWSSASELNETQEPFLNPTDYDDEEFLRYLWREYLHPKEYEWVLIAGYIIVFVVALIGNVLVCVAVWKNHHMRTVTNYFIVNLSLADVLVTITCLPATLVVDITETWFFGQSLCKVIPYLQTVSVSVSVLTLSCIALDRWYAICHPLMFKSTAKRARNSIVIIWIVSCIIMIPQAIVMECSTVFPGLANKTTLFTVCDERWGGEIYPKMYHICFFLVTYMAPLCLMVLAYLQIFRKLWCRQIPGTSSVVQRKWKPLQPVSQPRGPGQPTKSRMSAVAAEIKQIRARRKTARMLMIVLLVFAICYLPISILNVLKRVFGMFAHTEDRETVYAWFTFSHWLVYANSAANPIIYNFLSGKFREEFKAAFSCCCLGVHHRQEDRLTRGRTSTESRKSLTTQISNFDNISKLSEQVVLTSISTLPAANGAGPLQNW
# Experiment: Intracellular calcium (FLIPR) antagonist assay, CHO cells expressing human orexin-2 receptor, 3 nM orexin-A
# Assay type: cell-based
# Details: 1 uM compound, orexin-A 3 nM
# Method: as §1, §2
row,OX2R % Inh. @ 1uM [%],SMILES
1,34.14,Cc1cc(C)nc(N2CC3CN(C(=O)c4c(-c5ccccc5F)nc5ccccn45)CC3C2)n1 (centres unmarked) [Example 29]
2,29.13,Cc1cc(C)nc(N2CC3CN(C(=O)c4c(-c5ccc(F)cc5)nn5c4COCC5)CC3C2)n1 (centres unmarked) [Example 39]
3,7.18,Cc1cc(C)nc(N2CC3CN(C(=O)c4c(-c5ccc(F)cc5)nn5c4COCC5)CC3C2)n1 (centres unmarked) [Example 40]

# Same assay, conditions: CHO, 1 uM compound, orexin-A 3 nM, read-out: OX2R % Inh. @ 1uM
row,inhibition at 1 µM [%],SMILES
1,33.8,Cc1cc(C)nc(N2CC3CN(C(=O)c4c(-c5ccccc5)nc5ccc(F)cn45)CC3C2)n1 (centres unmarked) [Example 26]
2,14.2,Cc1cc(C)nc(N2CC3CN(C(=O)c4c(-c5ccc(F)cc5)nc5ccccn45)CC3C2)n1 (centres unmarked) [Example 27]
3,36.6,Cc1cc(C)nc(N2CC3CN(C(=O)c4c(-c5ccccc5F)nc5ccccn45)CC3C2)n1 (centres unmarked) [Example 28]
4,36.8,Cc1cc(C)nc(N2CC3CN(C(=O)c4c(-c5ccc(F)cc5)nn5ccccc45)CC3C2)n1 (centres unmarked) [Example 30]
5,3.74,Cc1cc(C)nc(N2CC3CN(C(=O)c4nc5ccccn5c4-c4ccc(F)cc4)CC3C2)n1 (centres unmarked) [Example 31]
6,12.1,Cc1cc(C)nc(N2CC3CN(C(=O)c4nc5ccccn5c4-c4ccccc4F)CC3C2)n1 (centres unmarked) [Example 32]
7,17.6,Cc1cc(C)nc(N2CC3CN(C(=O)c4nn5ccccc5c4-c4ccc(F)cc4)CC3C2)n1 (centres unmarked) [Example 33]
8,31.4,Cc1cc(C)nc(N2CC3CN(C(=O)c4nn5ccccc5c4-c4ccccc4F)CC3C2)n1 (centres unmarked) [Example 34]
9,22.5,O=C(c1c(-c2ccccc2)nc2ccc(F)cn12)N1CC2CN(c3ccc(C(F)(F)F)cn3)CC2C1 (centres unmarked) [Example 35]
10,23.6,O=C(c1c(-c2ccccc2)nc2cc(F)ccn12)N1CC2CN(c3ccc(C(F)(F)F)cn3)CC2C1 (centres unmarked) [Example 36]
11,46.9,Cc1cc(C)nc(N2CC3CN(C(=O)c4c(-c5ccccc5)nc5cc(C(F)(F)F)ccn45)CC3C2)n1 (centres unmarked) [Example 37]
12,3.32,Cc1cc(C)nc(N2CC3CN(C(=O)c4ccccc4-c4cnc5ccccn45)CC3C2)n1 (centres unmarked) [Example 38]
13,11.5,Cc1cc(C)nc(N2CC3CN(C(=O)c4c(-c5ccccc5)nn5c4COCC5)CC3C2)n1 (centres unmarked) [Example 41]
14,68,Cc1cc(C)nc(N2CC3CN(C(=O)C4C(c5ccccc5)=NN5C=CC=CC45)CC3C2)n1 (centres unmarked) [Example 42]
15,38.4,Cc1cc(C)nc(N2CC3CN(C(=O)c4c(-c5ccccc5)nc5ccccn45)CC3C2)n1 (centres unmarked) [Example 43]
16,56.1,Cc1cc(C)nc(N2CC3CN(C(=O)c4c(-c5ccccc5F)nn5ccccc45)CC3C2)n1 (centres unmarked) [Example 44]
